Numbers after ± are expanded uncertainties.
Experiment: xn = mol fraction of the nth substance listed
Conditions: 101 kPa, Liquid; for viscosity: Capillary tube (Ostwald / Ubbelohde) method; for mass density: Vibrating tube method

CCCCCCCO [heptan-1-ol] + CC(C)CC(C)(C)C
Conditions	mass density [kg/m3]	viscosity [mPa·s]
298.15 K, x2 = 0	818.82 ± 2	6.004 ± 0.073
298.15 K, x2 = 0.1003	804.69 ± 2	4.442 ± 0.054
298.15 K, x2 = 0.2002	790.62 ± 2	3.258 ± 0.039
298.15 K, x2 = 0.3002	776.7 ± 2	2.408 ± 0.029
298.15 K, x2 = 0.3999	763.07 ± 2	1.793 ± 0.021
298.15 K, x2 = 0.5	749.79 ± 2	1.349 ± 0.016
298.15 K, x2 = 0.6	736.64 ± 2	1.059 ± 0.013
298.15 K, x2 = 0.6999	723.94 ± 2	0.827 ± 0.01
298.15 K, x2 = 0.7999	711.51 ± 2	0.672 ± 0.008
298.15 K, x2 = 0.8999	699.33 ± 2	0.557 ± 0.007
298.15 K, x2 = 0.92	697.03 ± 2	–
298.15 K, x2 = 0.94	694.61 ± 2	–
298.15 K, x2 = 0.9599	692.3 ± 2	–
303.15 K, x2 = 0	815.3 ± 2	5.079 ± 0.062
303.15 K, x2 = 0.1003	801.1 ± 2	3.807 ± 0.046
303.15 K, x2 = 0.2002	786.96 ± 2	2.834 ± 0.034
303.15 K, x2 = 0.3002	772.96 ± 2	2.126 ± 0.025
303.15 K, x2 = 0.3999	759.26 ± 2	1.597 ± 0.019
303.15 K, x2 = 0.5	745.92 ± 2	1.224 ± 0.015
303.15 K, x2 = 0.6	732.7 ± 2	0.988 ± 0.012
303.15 K, x2 = 0.6999	719.94 ± 2	0.782 ± 0.009
303.15 K, x2 = 0.7999	707.45 ± 2	0.627 ± 0.007
303.15 K, x2 = 0.8999	695.21 ± 2	0.524 ± 0.006
303.15 K, x2 = 0.92	692.88 ± 2	–
303.15 K, x2 = 0.94	690.48 ± 2	–
303.15 K, x2 = 0.9599	688.17 ± 2	–
308.15 K, x2 = 0	811.75 ± 2	4.374 ± 0.054
308.15 K, x2 = 0.1003	797.48 ± 2	3.283 ± 0.04
308.15 K, x2 = 0.2002	783.26 ± 2	2.518 ± 0.03
308.15 K, x2 = 0.3002	769.2 ± 2	1.881 ± 0.023
308.15 K, x2 = 0.3999	755.43 ± 2	1.437 ± 0.017
308.15 K, x2 = 0.5	742.02 ± 2	1.13 ± 0.013
308.15 K, x2 = 0.6	728.74 ± 2	0.913 ± 0.011
308.15 K, x2 = 0.6999	715.91 ± 2	0.714 ± 0.008
308.15 K, x2 = 0.7999	703.35 ± 2	0.587 ± 0.007
308.15 K, x2 = 0.8999	691.05 ± 2	0.496 ± 0.006
308.15 K, x2 = 0.92	688.71 ± 2	–
308.15 K, x2 = 0.94	686.3 ± 2	–
308.15 K, x2 = 0.9599	683.98 ± 2	–
313.15 K, x2 = 0	808.17 ± 2	3.8 ± 0.047
313.15 K, x2 = 0.1003	793.83 ± 2	2.875 ± 0.035
313.15 K, x2 = 0.2002	779.54 ± 2	2.217 ± 0.027
313.15 K, x2 = 0.3002	765.4 ± 2	1.679 ± 0.02
313.15 K, x2 = 0.3999	751.57 ± 2	1.298 ± 0.016
313.15 K, x2 = 0.5	738.08 ± 2	1.018 ± 0.012
313.15 K, x2 = 0.6	724.74 ± 2	0.825 ± 0.01
313.15 K, x2 = 0.6999	711.84 ± 2	0.67 ± 0.008
313.15 K, x2 = 0.7999	699.22 ± 2	0.55 ± 0.007
313.15 K, x2 = 0.8999	686.85 ± 2	0.465 ± 0.006
313.15 K, x2 = 0.92	684.51 ± 2	–
313.15 K, x2 = 0.94	682.09 ± 2	–
313.15 K, x2 = 0.9599	679.77 ± 2	–
318.15 K, x2 = 0	804.57 ± 2	3.224 ± 0.04
318.15 K, x2 = 0.1003	790.15 ± 2	2.503 ± 0.031
318.15 K, x2 = 0.2002	775.79 ± 2	1.979 ± 0.024
318.15 K, x2 = 0.3002	761.58 ± 2	1.501 ± 0.018
318.15 K, x2 = 0.3999	747.67 ± 2	1.176 ± 0.014
318.15 K, x2 = 0.5	734.12 ± 2	0.934 ± 0.011
318.15 K, x2 = 0.6	720.71 ± 2	0.758 ± 0.009
318.15 K, x2 = 0.6999	707.74 ± 2	0.623 ± 0.007
318.15 K, x2 = 0.7999	695.05 ± 2	0.517 ± 0.006
318.15 K, x2 = 0.8999	682.63 ± 2	0.439 ± 0.005
318.15 K, x2 = 0.92	680.27 ± 2	–
318.15 K, x2 = 0.94	677.84 ± 2	–
318.15 K, x2 = 0.9599	675.52 ± 2	–
323.15 K, x2 = 0	800.93 ± 2	2.851 ± 0.035
323.15 K, x2 = 0.1003	786.43 ± 2	2.209 ± 0.027
323.15 K, x2 = 0.2002	772 ± 2	1.754 ± 0.021
323.15 K, x2 = 0.3002	757.71 ± 2	1.351 ± 0.016
323.15 K, x2 = 0.3999	743.74 ± 2	1.071 ± 0.013
323.15 K, x2 = 0.5	730.12 ± 2	0.859 ± 0.01
323.15 K, x2 = 0.6	716.64 ± 2	0.699 ± 0.008
323.15 K, x2 = 0.6999	703.6 ± 2	0.592 ± 0.007
323.15 K, x2 = 0.7999	690.85 ± 2	0.487 ± 0.006
323.15 K, x2 = 0.8999	678.37 ± 2	0.416 ± 0.005
323.15 K, x2 = 0.92	675.99 ± 2	–
323.15 K, x2 = 0.94	673.57 ± 2	–
323.15 K, x2 = 0.9599	671.24 ± 2	–
